This note sets out measurements from patent US20170320870A1 (Medical Research Council Technology, priority 2009, published 2017).

By pIC50 is commonly meant −log10 of the IC50, conventionally taken in molar units.

pIC50: −log10 of the molar value.

The experiment deals with T1, LRRK2 wild type (recombinant human, catalytic domain amino acids 970-2527, GST-tagged) (Homo sapiens, UniProt Q5S007).
T1 construct: The wild type used was recombinant human, catalytic domain (amino acids 970-2527) GST-tagged, expressed in insect cells; GST; purchased Invitrogen Corporation PV4873; host or cells: insect cells
T1 sequence (Q5S007 970-2527): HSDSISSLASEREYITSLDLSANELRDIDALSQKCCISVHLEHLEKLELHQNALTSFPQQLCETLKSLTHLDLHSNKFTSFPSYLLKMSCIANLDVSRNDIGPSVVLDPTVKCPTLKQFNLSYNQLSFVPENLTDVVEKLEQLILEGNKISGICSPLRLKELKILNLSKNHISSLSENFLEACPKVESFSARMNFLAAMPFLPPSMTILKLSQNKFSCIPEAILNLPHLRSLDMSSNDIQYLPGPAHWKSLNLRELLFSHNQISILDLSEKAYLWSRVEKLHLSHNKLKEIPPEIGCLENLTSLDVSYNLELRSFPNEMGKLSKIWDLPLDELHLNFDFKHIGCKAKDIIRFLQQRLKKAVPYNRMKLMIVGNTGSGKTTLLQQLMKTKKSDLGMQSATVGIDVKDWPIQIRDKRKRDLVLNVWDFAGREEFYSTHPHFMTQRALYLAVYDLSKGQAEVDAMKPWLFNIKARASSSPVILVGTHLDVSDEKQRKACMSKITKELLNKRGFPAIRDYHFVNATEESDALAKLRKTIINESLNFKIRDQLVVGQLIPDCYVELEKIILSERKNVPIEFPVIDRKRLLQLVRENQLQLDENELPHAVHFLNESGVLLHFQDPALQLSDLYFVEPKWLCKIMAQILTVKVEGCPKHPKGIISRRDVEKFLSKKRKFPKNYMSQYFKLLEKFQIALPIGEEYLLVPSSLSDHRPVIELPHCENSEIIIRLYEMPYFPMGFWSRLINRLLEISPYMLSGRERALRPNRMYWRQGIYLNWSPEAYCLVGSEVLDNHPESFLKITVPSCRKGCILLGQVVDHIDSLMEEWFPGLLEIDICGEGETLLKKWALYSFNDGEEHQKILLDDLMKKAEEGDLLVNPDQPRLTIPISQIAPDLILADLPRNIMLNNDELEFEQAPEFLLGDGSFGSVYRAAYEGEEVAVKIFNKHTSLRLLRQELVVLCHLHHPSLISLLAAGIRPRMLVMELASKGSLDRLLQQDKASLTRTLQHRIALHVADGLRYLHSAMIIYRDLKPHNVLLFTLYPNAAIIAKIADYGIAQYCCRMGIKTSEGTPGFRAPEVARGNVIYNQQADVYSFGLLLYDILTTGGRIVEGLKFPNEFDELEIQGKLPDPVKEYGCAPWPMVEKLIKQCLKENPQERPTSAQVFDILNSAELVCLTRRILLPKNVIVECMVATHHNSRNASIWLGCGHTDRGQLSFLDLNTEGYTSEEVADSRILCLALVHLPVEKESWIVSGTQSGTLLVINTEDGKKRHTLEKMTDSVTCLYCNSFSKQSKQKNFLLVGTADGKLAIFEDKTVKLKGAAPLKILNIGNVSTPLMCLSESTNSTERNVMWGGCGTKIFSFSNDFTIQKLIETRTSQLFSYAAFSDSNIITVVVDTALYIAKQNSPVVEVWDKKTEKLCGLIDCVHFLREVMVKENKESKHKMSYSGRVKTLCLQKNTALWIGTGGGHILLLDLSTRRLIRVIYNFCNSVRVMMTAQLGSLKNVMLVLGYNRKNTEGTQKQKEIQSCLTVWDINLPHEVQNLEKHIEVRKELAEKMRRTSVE
Kind of experiment: LRRK2 wild type protein kinase assay ([γ-33P] ATP, peptide substrate […]), IC50. In kind it is biochemical. The settings on record: LRRK2 (variant not given); read-out: Potency score, LRRK2 IC50. Put shortly: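 Insect-cell-expressed enzyme (~5 nM), no activation, incubated 180 min at ~21 °C in 50 mM Tris-HCl pH 7.5, 0.1 mM EGTA, 1 mM DTT, 10 mM MgCl2 with 100 μM peptide substrate and [γ-33P]ATP. Reaction stopped with orthophosphoric acid, captured on P81 filters and counted; IC50 from 10 concentrations in duplicate.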
As for `O=C(CCc1n[nH]c2ccnc(NC3CCCCC3)c12)NCc1cccc(F)c1` [Example 186, 3-(4-Cyclohexylamino-1H-pyrazolo[4,3-c]pyridin-3-yl)-N-(3-fluoro-benzyl)-propionamide], the pIC50 was 5.00 to 6.00. The same measure for `O=C(Nc1ccc(CCc2n[nH]c3ccnc(NC4CCCCC4)c23)cc1)c1ccncc1` [Example 267, N-{4-[2-(4-Cyclohexylamino-1H-pyrazolo[4,3-c]pyridin-3-yl)-ethyl]-phenyl}-isonicotinamide]: above 7.00; for `Cc1n[nH]c2ccnc(NC(C)C)c12` [Example 36, Isopropyl-(3-methyl-1H-pyrazolo[4,3-c]pyridin-4-yl)-amine]: 6.00 to 7.00; for `CC(=O)Nc1cccc(Nc2nccc3[nH]nc(C)c23)c1` [Example 78, N-[3-(3-Methyl-1H-pyrazolo[4,3-c]pyridin-4-ylamino)-phenyl]-acetamide]: 5.00 to 6.00. Regarding `Cc1n[nH]c2ccnc(NCC3CCCCC3)c12` [Example 325, Cyclohexylmethyl-(3-methyl-1H-pyrazolo[4,3-c]pyridin-4-yl)-amine], the pIC50 is 5.00 to 6.00. Consider `Cc1n[nH]c2ccnc(CCC(C)C)c12` [Example 128, 3-Methyl-4-(3-methyl-butyl)-1H-pyrazolo[4,3-c]pyridine], for which the pIC50 was 5.00 to 6.00. Take `Cc1n[nH]c2ccnc(Nc3ccc(C(F)(F)F)cc3)c12` [Example 346, (3-Methyl-1H-pyrazolo[4,3-c]pyridin-4-yl)-(4-trifluoromethyl-phenyl)-amine]: the pIC50 was 6.00 to 7.00. Consider `CCOc1nccc2[nH]nc(C)c12` [Example 124, 4-Ethoxy-3-methyl-1H-pyrazolo[4,3-c]pyridine], for which the negative logarithm of the IC50 (pIC50) is 6.00 to 7.00. `Cc1n[nH]c2ccnc(NCc3ccc(Cl)cc3)c12` [Example 1, (4-Chloro-benzyl)-(3-methyl-1H-pyrazolo[4,3-c]pyridin-4-yl)-amine]: the pIC50 was 5.00 to 6.00. Regarding `CCN(CC)CCNc1nccc2[nH]nc(C)c12` [Example 14, N,N-diethyl-N′-(3-methyl-1H-pyrazolo[4,3-c]pyridin-4-yl)-ethane-1,2-diamine], the pIC50 is 5.00 to 6.00. Under `O=C(CCc1n[nH]c2ccnc(NC3CCCCC3)c12)N1CCC(c2ccncc2)C1` (stereo not drawn) [Example 209, 3-(4-Cyclohexylamino-1H-pyrazolo[4,3-c]pyridin-3-yl)-1-(3-pyridin-4-yl-pyrrolidin-1-yl)-propan-1-one] stands above 7.00; under `c1cc2[nH]nc(-c3ccc(N4CCOCC4)cc3)c2c(NC2CCCCC2)n1` [Example 152, Cyclohexyl-[3-(4-morpholin-4-yl-phenyl)-1H-pyrazolo[4,3-c]pyridin-4-yl]-amine], 6.00 to 7.00; under `CC[C@@H](C)Nc1nccc2[nH]nc(C)c12` [Example 37, ((R)-sec-Butyl)-(3-methyl-1H-pyrazolo[4,3-c]pyridin-4-yl)-amine], 5.00 to 6.00.

`Cc1n[nH]c2ccnc(O[C@@H](C)Cc3ccccc3)c12` [Example 300, 3-Methyl-4-((S)-1-methyl-2-phenyl-ethoxy)-1H-pyrazolo[4,3-c]pyridine]: the pIC50 was 6.00 to 7.00.

For `O=C(CCc1n[nH]c2ccnc(NC3CCCCC3)c12)N1CCC[C@@H](c2ccccc2)C1` [Example 190, 3-(4-Cyclohexylamino-1H-pyrazolo[4,3-c]pyridin-3-yl)-1-((S)-3-phenyl-piperidin-1-yl)-propan-1-one], the pIC50 is 6.00 to 7.00. As for `Cc1n[nH]c2ccnc(Nc3ccc4ncoc4c3)c12` [Example 349, Benzoxazol-6-yl-(3-methyl-1H-pyrazolo[4,3-c]pyridin-4-yl)-amine], the pIC50 was 6.00 to 7.00.

For `Cc1n[nH]c2ccnc(NC3CCOCC3)c12` [Example 4, (3-Methyl-1H-pyrazolo[4,3-c]pyridin-4-yl)-(tetrahydro-pyran-4-yl)-amine], the pIC50 was 6.00 to 7.00.

`O=C(Nc1ccc(CCc2n[nH]c3ccnc(NC4CCCCC4)c23)cc1)c1ccccn1` [Example 265, Pyridine-2-carboxylic acid {4-[2-(4-cyclohexylamino-1H-pyrazolo[4,3-c]pyridin-3-yl)-ethyl]-phenyl}-amide]: the pIC50 was above 7.00.
